The source of these data is patent US5650444A, “Substituted biphenyl derivatives” (American Home Products Corporation, priority 1995, dated 1997).

pIC50: −log10 of the molar value.

This assay has as its system PDE IV. Description: Test Procedure No. 2: functional inhibition of PDE IV (relaxation of guinea pig tracheal rings precontracted with carbachol). The class given is cell-based, guinea pig (male Hartley). The note with it: in presence of CI-930 (10 μM). As for the experimental part:
The following standard test is also employed to assess the abilities of compounds to inhibit PDE IV functionally. […]
Tracheal relaxation resulting from the inhibition of PDE-IV or PDE-III was assessed by a method similar to that employed by Harris et al. (1989). […] The functional inhibition of PDE-IV or PDE-III was determined by adding a test compound to the tissue bath in cumulatively increasing concentrations and monitoring the degree of relaxation induced in the continued presence of CI-930 or rolipram (respectively). […] Percent relaxations produced by each concentration of test compound were calculated as a percentage relaxation of tension maintained in the presence of the preincubating PDE inhibitor, relative to the final resting tension determined at the end of each experiment. […]

Consider `COC(=O)c1cccc(-c2ccc(OC)c(OC3CCCC3)c2)c1` [Example 18, 3'-Cyclopentyloxy-4'-methoxy-biphenyl-3-carboxylic acid methyl ester], for which the pIC50 – broadly, −log10 of the IC50, conventionally taken in molar units – was 6.92.
